The values below come from ChEMBL document CHEMBL1130919, “Probing the importance of spacial and conformational domains in captopril analogs for angiotensin converting enzyme activity” (Bioorg Med Chem Lett, 1998).

Assay [1] has as its target T1, Endothelin-converting enzyme 1 (Homo sapiens, UniProt P42892).
T1 sequence (P42892 whole entry): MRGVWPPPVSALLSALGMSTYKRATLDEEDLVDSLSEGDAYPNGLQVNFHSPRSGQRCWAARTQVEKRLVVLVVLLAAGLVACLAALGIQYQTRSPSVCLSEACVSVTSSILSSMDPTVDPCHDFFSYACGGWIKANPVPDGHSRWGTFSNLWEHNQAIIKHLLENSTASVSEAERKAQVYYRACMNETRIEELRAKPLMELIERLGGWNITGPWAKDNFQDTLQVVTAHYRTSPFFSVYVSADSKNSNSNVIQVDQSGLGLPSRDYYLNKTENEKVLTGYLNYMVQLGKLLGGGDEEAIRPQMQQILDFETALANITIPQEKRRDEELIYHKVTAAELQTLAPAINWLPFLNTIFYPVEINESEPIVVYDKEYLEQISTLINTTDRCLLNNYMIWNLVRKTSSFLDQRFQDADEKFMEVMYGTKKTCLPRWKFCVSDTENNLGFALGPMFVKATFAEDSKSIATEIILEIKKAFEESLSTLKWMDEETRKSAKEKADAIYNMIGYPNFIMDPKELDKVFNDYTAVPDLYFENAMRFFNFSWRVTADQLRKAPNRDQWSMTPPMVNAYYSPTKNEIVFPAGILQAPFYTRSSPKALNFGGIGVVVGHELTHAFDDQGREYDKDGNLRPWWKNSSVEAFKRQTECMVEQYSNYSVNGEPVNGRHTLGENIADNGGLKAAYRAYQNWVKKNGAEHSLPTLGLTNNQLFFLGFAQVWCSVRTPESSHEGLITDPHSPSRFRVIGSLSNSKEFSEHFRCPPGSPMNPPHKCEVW
As to the kind of experiment: Compound was tested for its inhibitory activity against Endothelin-converting enzyme at the concentration of 1 uM; Inactive.

Another assay addresses T2, Neprilysin (Rattus norvegicus, UniProt P07861).
T2 sequence (P07861 whole entry): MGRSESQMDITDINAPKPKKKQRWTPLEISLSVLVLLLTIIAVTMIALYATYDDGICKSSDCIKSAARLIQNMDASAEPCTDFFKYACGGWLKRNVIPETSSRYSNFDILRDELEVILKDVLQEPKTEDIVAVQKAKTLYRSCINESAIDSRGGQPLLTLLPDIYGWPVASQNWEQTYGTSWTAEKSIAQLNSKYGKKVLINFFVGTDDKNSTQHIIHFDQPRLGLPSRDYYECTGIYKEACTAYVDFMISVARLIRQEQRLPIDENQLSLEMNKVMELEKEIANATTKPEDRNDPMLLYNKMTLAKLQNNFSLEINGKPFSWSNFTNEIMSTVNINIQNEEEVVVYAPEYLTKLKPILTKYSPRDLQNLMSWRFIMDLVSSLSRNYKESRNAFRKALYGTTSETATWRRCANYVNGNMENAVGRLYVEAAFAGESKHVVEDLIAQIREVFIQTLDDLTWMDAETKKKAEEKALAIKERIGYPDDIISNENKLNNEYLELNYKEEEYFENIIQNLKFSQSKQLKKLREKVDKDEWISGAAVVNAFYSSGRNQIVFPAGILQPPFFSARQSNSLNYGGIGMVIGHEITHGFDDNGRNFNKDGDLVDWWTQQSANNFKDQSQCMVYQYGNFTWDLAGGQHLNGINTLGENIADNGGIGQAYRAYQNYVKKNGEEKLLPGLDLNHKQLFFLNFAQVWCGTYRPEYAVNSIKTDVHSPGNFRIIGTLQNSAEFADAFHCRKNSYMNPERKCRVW
As to the kind of experiment: Compound was tested for its inhibitory activity against neutral endopeptidase 24.11 enzyme at the concentration of 10 uM; Inactive.

The target in assay [2] is T3, Angiotensin-converting enzyme (Oryctolagus cuniculus, UniProt P12822).
T3 sequence (P12822 whole entry): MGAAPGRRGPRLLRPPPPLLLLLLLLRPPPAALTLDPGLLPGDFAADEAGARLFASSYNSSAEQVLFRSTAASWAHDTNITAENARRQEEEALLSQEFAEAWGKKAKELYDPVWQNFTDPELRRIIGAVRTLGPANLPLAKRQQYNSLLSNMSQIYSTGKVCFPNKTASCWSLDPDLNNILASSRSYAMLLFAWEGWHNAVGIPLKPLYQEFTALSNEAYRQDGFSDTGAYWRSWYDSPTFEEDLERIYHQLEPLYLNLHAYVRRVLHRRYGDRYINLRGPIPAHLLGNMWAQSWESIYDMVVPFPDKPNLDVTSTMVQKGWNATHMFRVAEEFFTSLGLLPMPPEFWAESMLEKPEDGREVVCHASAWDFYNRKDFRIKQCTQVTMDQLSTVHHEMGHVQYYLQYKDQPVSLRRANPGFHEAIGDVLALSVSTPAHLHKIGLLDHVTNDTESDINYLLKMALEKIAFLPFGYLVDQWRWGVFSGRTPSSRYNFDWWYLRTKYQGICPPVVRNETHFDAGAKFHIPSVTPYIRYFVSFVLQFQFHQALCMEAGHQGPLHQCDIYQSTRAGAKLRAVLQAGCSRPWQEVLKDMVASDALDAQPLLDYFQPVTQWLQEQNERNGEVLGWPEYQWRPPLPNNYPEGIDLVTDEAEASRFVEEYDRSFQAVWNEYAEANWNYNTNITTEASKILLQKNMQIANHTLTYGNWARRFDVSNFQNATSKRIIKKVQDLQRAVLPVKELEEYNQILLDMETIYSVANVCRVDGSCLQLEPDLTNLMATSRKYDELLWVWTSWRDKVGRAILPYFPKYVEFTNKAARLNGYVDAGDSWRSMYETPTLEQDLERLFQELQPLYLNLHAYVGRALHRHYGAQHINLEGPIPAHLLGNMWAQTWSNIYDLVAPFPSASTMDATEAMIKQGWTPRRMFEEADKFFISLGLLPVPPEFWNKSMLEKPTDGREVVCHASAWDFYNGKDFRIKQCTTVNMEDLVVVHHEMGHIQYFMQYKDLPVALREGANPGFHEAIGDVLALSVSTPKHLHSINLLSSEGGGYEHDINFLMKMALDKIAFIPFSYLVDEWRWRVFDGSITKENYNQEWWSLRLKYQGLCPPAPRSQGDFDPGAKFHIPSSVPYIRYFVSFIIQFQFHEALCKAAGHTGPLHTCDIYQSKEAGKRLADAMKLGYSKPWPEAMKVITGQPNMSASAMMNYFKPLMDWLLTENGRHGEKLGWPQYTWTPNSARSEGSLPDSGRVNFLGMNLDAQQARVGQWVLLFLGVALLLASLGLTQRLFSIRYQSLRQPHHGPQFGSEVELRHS
The experiment in a line: Compound was tested for its inhibitory activity against Angiotensin I converting enzyme.

For the compound `C[C@H](CS)C(=O)N1[C@@H]2C[C@@H]2CC[C@H]1C(=O)O`, the IC50 result is “Not Active” in assay [1], “Not Active” at Neprilysin and 5.3 nM in assay [2].
Turning to `C[C@H](CS)C(=O)N1[C@@H]2C[C@@H]2C[C@H]1C(=O)O`, the IC50 entry in assay [1] was “Not Active”; against Neprilysin, “Not Active”; in assay [2], 7.6 nM.
With `C[C@H](CS)C(=O)N1[C@H](C(=O)O)C[C@@H]2C[C@@H]21`, the IC50 entry in assay [1] was “Not Active”; at Neprilysin it was “Not Active”; in assay [2] it was 6.6 nM.

The term IC50 denotes the concentration that inhibits the measured activity by half.
